Measured values: patent US4346173A, “Process for the production of acyl-Coenzyme A oxidase” (Toyo Jozo Kabushiki Kaisha, priority 1979, dated 1982)

B1: acyl-CoA oxidase of Saccharomyces cerevisiae (strain Y 0036) (Saccharomyces cerevisiae S288C) (protein)
chain: MTRRTTINPDSVVLNPQKFIQKERADSKIKVDQVNTFLESSPERRTLTHALIDQIVNDPILKTDTDYYDAKKMQEREITAKKIARLASYMEHDIKTVRKHFRDTDLMKELQANDPDKASPLTNKDLFIFDKRLSLVANIDPQLGTRVGVHLGLFGNCIKGNGTDEQIRYWLQERGATLMKGIYGCFAMTELGHGSNVAQLQTRAVYDKQNDTFVIDTPDLTATKWWIGGAAHSATHAAVYARLIVEGKDYGVKTFVVPLRDPSTFQLLAGVSIGDIGAKMGRDGIDNGWIQFRNVVIPREFMLSRFTKVVRSPDGSVTVKTEPQLDQISGYSALLSGRVNMVMDSFRFGSKFATIAVRYAVGRQQFAPRKGLSETQLIDYPLHQYRVLPQLCVPYLVSPVAFKLMDNYYSTLDELYNASSSAYKAALVTVSKKLKNLFIDSASLKATNTWLIATLIDELRQTCGGHGYSQYNGFGKGYDDWVVQCTWEGDNNVLSLTSAKSILKKFIDSATKGRFDNTLDVDSFSYLKPQYIGSVVSGEIKSGLKELGDYTEIWSITLIKLLAHIGTLVEKSRSIDSVSKLLVLVSKFHALRCMLKTYYDKLNSRDSHISDEITKESMWNVYKLFSLYFIDKHSGEFQQFKIFTPDQISKVVQPQLLALLPIVRKDCIGLTDSFELPDAMLNSPIGYFDGDIYHNYFNEVCRNNPVEADGAGKPSYHALLSSMLGRGFEFDQKLGGAANAEILSKINK
notes: endogenous in cells; host or cells: Saccharomyces cerevisiae Y 0036 (FERM-P No. 5174; enzyme of the producing strain itself)

What was measured:
Assay in all cases: Acyl-CoA oxidase assay (hydrogen peroxide colorimetry at 545 nm), Km value
[1] = test system: acyl-CoA oxidase of Arthrobacter sp. B-0720; type: biochemical; settings: substrate of the assay method: palmitoyl-CoA; 37° C.; phosphate buffer pH 7.0 or tris-HCl buffer pH 8.0
Experimental: (§1) Enzyme solution (10 μl) is added to a reaction mixture (0.5 ml) consisting of 0.2 M phosphate buffer (pH 7.0) or 0.2 M tris-HCl buffer (pH 8.0) (0.1 ml), 5 mM 4-aminoantipyrine (0.05 ml), 3 mM diethyl m-toludine (0.05 ml), peroxidase (0.5 mg/ml, 0.05 ml), 25 mM palmitoyl-CoA (0.02 ml) and distilled water (0.23 ml) and the mixture is incubated at 37° C. for 10 minutes. 4 M urea (0.5 ml) is added to stop the reaction, and 1% by weight of Triton X-100 (2 ml) is added thereto and the generated hydrogen peroxide is measured at 545 nm by colorimetry.
(§2) A unit (1 unit, 1 U) of enzyme activity is defined as the activity of enzyme which generates 1μ mole of hydrogen peroxide per minute.

[2] = test system: acyl-CoA oxidase of Macrophomina phaseoli ATCC 14383; type: biochemical; settings: substrate of the assay method: palmitoyl-CoA; 37° C.; phosphate buffer pH 7.0 or tris-HCl buffer pH 8.0
Experimental: as §1, §2

[3] = test system: acyl-CoA oxidase of Monascus sp. M-4800; type: biochemical; settings: substrate of the assay method: palmitoyl-CoA; 37° C.; phosphate buffer pH 7.0 or tris-HCl buffer pH 8.0
Experimental: as §1, §2

[4] = test system: acyl-CoA oxidase of Cladosporium resinae IFO 6367; type: biochemical; settings: substrate of the assay method: palmitoyl-CoA; 37° C.; phosphate buffer pH 7.0 or tris-HCl buffer pH 8.0
Experimental: as §1, §2

[5] = test system: acyl-CoA oxidase of Aspergillus candidus M-4815; type: biochemical; settings: substrate of the assay method: palmitoyl-CoA; 37° C.; phosphate buffer pH 7.0 or tris-HCl buffer pH 8.0
Experimental: as §1, §2

[6] = substrate: CCCCCCCCCCCCCCCC(=O)SCCNC(=O)CCNC(=O)[C@H](O)C(C)(C)COP(=O)(O)OP(=O)(O)OC[C@H]1O[C@@H](n2cnc3c(N)ncnc32)[C@H](O)[C@@H]1OP(=O)(O)O; type: biochemical, Saccharomyces cerevisiae; settings: other: substrate of the assay method: palmitoyl-CoA, 37° C., phosphate buffer pH 7.0 or tris-HCl buffer pH 8.0
Experimental: as §1, §2

Molecule | Km [1] [µM] | Km [2] [µM] | Km [3] [µM] | Km [4] [µM] | Km [5] [µM] | Km [6] [µM]
CCCCCCCCCCCCCCCC(=O)SCCNC(=O)CCNC(=O)[C@H](O)C(C)(C)COP(=O)(O)OP(=O)(O)OC[C@H]1O[C@@H](n2cnc3c(N)ncnc32)[C@H](O)[C@@H]1OP(=O)(O)O [palmitoyl-CoA] | 130 | 87 | 150 | 120 | 110 | –
B1 | – | – | – | – | – | 500
